Measured values: US20170226139A1, “CRYSTALLINE SALTS OF (Z)-O-OCTADEC-9-EN-1-YL O,O-DIHYDROGEN PHOSPHOROTHIOATE” (priority 2013, published 2017)
“Also recorded” adds a separate entry of the source. Where two headings read alike, the source gives them in different places.

Tests used:
[1] = test system: lysophosphatidic acid receptor (LPAR); assay: Calcium-mobilization assay, overall statements for all species and LPAR subtypes tested; assay type: cell-based
From the text: The compound was medicinally designed as an LPA analog with the goal of decreasing the otherwise rapid metabolism of LPA itself. […] These receptors are ubiquitous by tissue and in those eukaryotes investigated. […] Thus, the mechanism of drug action for GI-ARS protection is activation of the transmembrane G protein-coupled lysophosphatidic acid receptor (LPAR) and, more specifically, the LPAR2 GPCR subtype. The primary pharmacodynamics is that LPAR2 activation leads to a cascade of intracellular events that switch cells from an apoptotic to a repair/regenerative pathway.
We investigated structure-activity relationships across species, LPAR subtypes and between Rx100 and two known process impurities encountered in manufacture: Rx103 (‘E’ isomer) and Rx200 (oleyl phosphate and impurity, which can be an Rx100 degradant along with oleyl alcohol). Rx100, Rx103, Rx200 and native LPA were investigated at different human LPAR subtypes. In addition, the activity of these compounds was evaluated at LPA2 receptors from the rhesus, rat and mouse species. Human LPA1/2/3 subtypes were transfected into mouse embryonic fibroblasts (MEF) or rat hepatoma cells (RH7777)—both of which are normally non-responsive or null to LPA. Human LPA4 was transfected into Chinese hamster ovary (CHO) cells and LPA5 into the B103 neuroblastoma cell line. […] The B103 rat neuroblastoma cell line is endogenously nonresponsive to LPA but expresses heterologous LPA5 receptors well. […] LPAR activation elicits a G-protein-mediated transient rise in intracellular calcium level that is proportional to the concentration of LPA applied. The intracellular calcium level was quantified by the calcium-selective fluorescent indicator FURA-2 (e.g., increased intracellular calcium surge=increased fluorescence).
Oleyl alcohol is, of course, a common component of many non-toxic ingested or dermally applied substances.

Male Sprague-Dawley rats = assay: Respiratory system safety pharmacology (plethysmograph); assay type: in vivo
Description: Male Sprague-Dawley rats (n=6/group) were administered Rx100.lysine as a single oral (gavage) doses of 0 (10 mM histidine in sterile water for injection, USP), 1.81, 6.33, and 18.1 mg/kg and monitored for respiratory function. Animals were placed in a plesthymograph and monitored at pre-dose and for consecutive 30 minute averages beginning 30 minutes postdose through 6 hours postdose and again at 24 hours postdose. Parameters evaluated included tidal volume, respiratory rate and minute volume. […] It was concluded that there were no adverse effects on the respiratory system in rats at doses of 1.81 mg/kg.

[2] = Subcutaneous and intravenous pharmacokinetics in healthy and irradiated Rhesus Macaques; assay type: in vivo
Description: We performed a cross-over comparison of subcutaneous and intravenous pharmacokinetics of Rx100.L-Lysine in six healthy Rhesus Macaques and subcutaneous pharmacokinetic and Pharmacodynamics of Rx100.L-Lysine after a single irradiation in six Rhesus Macaques.
Rhesus macaques (male, 3-5 kg) were administered vehicle control article (10 mM Histidine in sterile water for Injection, USP) or Rx100.Lysine salt as a single injection via subcutaneous injection or as an intravenous bolus as indicated in Table 32.
Blood was collected at baseline (7-10 days prior to dose administration), pre-dose (within 30 minutes), 0.5, 1, 2, 4, 6, 8, 24, 48, 72, 96, and 120 hours after dosing for phases 1 and 2. The phase 3 (post-irradiation phase) blood was collected at baseline (7-10 days prior to dose administration), pre-dose (within 30 minutes), 0.5, 1, 2, 4, 6, 8, 24, 48, 72, and 96 hours after dosing. The dose in phase 3 was administered approximately 24 hours after exposure to 11.5 Gy Partial Body Irradiation. Samples, approximately 1.0 mL, were collected and maintained on wet ice in vials containing Di-Potassium EDTA until centrifugation. Samples were stored in a freezer set to maintain −70° C. to −90° C. until shipped on dry ice for analysis.
Analysis was performed using qualified and validated Phoenix® WinNonlin® Software and RxBio™ SOP PRE-0030™, Phoenix® WinNonlin® Software for Statistical Analysis. The final data provided was imported into Phoenix® WinNonlin®. All data presented were generated using the validated Phoenix® WinNonlin® Software. Concentrations reported as BLOQ were treated as missing values for the purpose of this analysis. A non-compartmental pharmacokinetic analysis was performed for each subject separately for IV, SC, and SC+IR. The automatic terminal slope selector function was used along with nominal dose (1 mg/kg) with a dosing interval set at 120 hours since this was a single dose study. The terminal slope was selected from the last 3 quantifiable plasma concentrations for each subject (48-96 hours for the Phase 3 Irradiated subjects and 72-120 for all healthy subjects). Selected pharmacokinetic estimations are presented in Table 33, time of maximum concentration (Tmax (h)), maximum concentration observed (Cmax (ng/mL)), exposure or area under the concentration vs time curve (AUC (h*ng/mL)), volume of distribution (Vz_F ([…])), clearance (CL_F (mL/h/kg), and half-life (T½ or HL_Lambda_z (h)).

[3] = SC 1 mg/kg about 24 h after 11.5 Gy, Average of 6 animals
[4] = SC 1 mg/kg, healthy, Average of 6 animals
[5] = male, rhesus monkey, plasma, iv, 1 mg/kg, IV 1 mg/kg, healthy, Average of 6 animals
[6] = male, rhesus monkey, plasma, iv, 1 mg/kg, IV 1 mg/kg, healthy, individual animals (ID in c1)
[7] = male, rhesus monkey, plasma, sc, 1 mg/kg, SC 1 mg/kg about 24 h after 11.5 Gy, Average of 6 animals
[8] = male, rhesus monkey, plasma, sc, 1 mg/kg, SC 1 mg/kg, healthy, Average of 6 animals

With CCCCCCCC/C=C\CCCCCCCCOP(O)(O)=S [Rx100, (Z)—O-octadec-9-en-1-yl O,O-dihydrogen phosphorothioate] the “LPAR activation” value [1] was “pan lysophosphatidic acid receptor (LPAR) agonist; also recorded: substantially more in vitro activity”.

With CCCCCCCC/C=C\CCCCCCCCOP(O)(O)=S [Rx100.L-Lysine, (Z)—O-octadec-9-en-1-yl O,O-dihydrogen phosphorothioate] the “effects on respiratory parameters” value (Male Sprague-Dawley rats; 1.81 mg/kg) was “No statistically significant or biologically meaningful effects”, the “increase in respiratory rates” value (Male Sprague-Dawley rats; 6.33 mg/kg) was 68% and the “reduction in tidal volume” value (Male Sprague-Dawley rats; 6.33 mg/kg) was 29%. For the same molecule, the “respiratory values 24 hours post dose” value (Male Sprague-Dawley rats; 6.33 mg/kg) was “essentially normal”, the “increase in respiratory rates” value (Male Sprague-Dawley rats; 18.1 mg/kg) was 65% and the “reduction in tidal volume” value (Male Sprague-Dawley rats; 18.1 mg/kg) was 32%. For the same molecule, the “respiratory values 24 hours post dose” value (Male Sprague-Dawley rats; 18.1 mg/kg, reduced in magnitude) was “still showed effects”, the “dose with no adverse effects on the respiratory system” value (Male Sprague-Dawley rats; male, Sprague-Dawley, rat, in vivo, oral, 24 h) was 1.81 mg/kg and the λz ([2]; IV 1 mg/kg, healthy, Average of 6 animals) was 0.049 ± 0.020 h⁻¹. It also gave a CL [2, 3] of 0.333 ± 0.12 mL/min/kg, a Vd [2, 3] of 0.251 ± 0.091 L/kg and a λz [2, 3] of 0.079 ± 0.006 h⁻¹. For the same molecule, the Vd [2, 4] was 0.26 ± 0.083 L/kg, the λz [2, 4] was 0.066 ± 0.004 h⁻¹ and the F ([2]; SC post IR) was 0.89±0.2. The “clearance (CL)” value ([2]; SC post IR, 1 mg/kg) was 0.333 ± 0.12 mL/min/kg, the “volume of distribution (Vd)” value ([2]; SC post IR, 1 mg/kg) was 0.251 ± 0.091 L/kg and the “fraction absorbed after subcutaneous administration (F)” value ([2]; SC, healthy, versus IV) was 1.0±0.18. For the same molecule, the “volume of distribution (Vd)” value ([2]; SC, healthy, single dose 1 mg/kg) was 0.26 ± 0.083 L/kg, the AUC [2, 5] was 63200 ± 15100 ng·h/mL and the Cmax [2, 5] was 18600 ± 1760 ng/mL. It also gave an AUC(0-inf) ([2]; male, rhesus monkey, plasma, iv, 1 mg/kg, IV 1 mg/kg, healthy, Average of 6 animals, read-out: AUCINF) of 63200 ± 15100 ng·h/mL, a clearance ([2]; male, rhesus monkey, plasma, iv, 1 mg/kg, IV 1 mg/kg, healthy, Average of 6 animals, read-out: CL (converted)) of 0.283 mL/min/kg and a half-life ([2]; male, rhesus monkey, plasma, iv, 1 mg/kg, IV 1 mg/kg, healthy, Average of 6 animals, read-out: T1/2 (converted)) of 16.4 ± 7.29 h. The Vd ([2]; male, rhesus monkey, plasma, iv, 1 mg/kg, IV 1 mg/kg, healthy, Average of 6 animals, read-out: Vd) was 0.428 ± 0.29 L/kg, the AUC [2, 6] was 73500 ng·h/mL and the Cmax [2, 6] was 15900 ng/mL. The AUC(0-inf) ([2]; male, rhesus monkey, plasma, iv, 1 mg/kg, IV 1 mg/kg, healthy, individual animals (ID in c1), read-out: AUCINF) was 73500 ng·h/mL, the clearance ([2]; male, rhesus monkey, plasma, iv, 1 mg/kg, IV 1 mg/kg, healthy, individual animals (ID in c1), read-out: CL (converted)) was 0.233 mL/min/kg and the clearance ([2]; male, rhesus monkey, plasma, iv, 1 mg/kg, IV, healthy, 1 mg/kg, read-out: clearance (CL) (converted)) was 0.283 mL/min/kg. The AUC(0-inf) ([2]; male, rhesus monkey, plasma, iv, 1 mg/kg, IV, healthy, 1 mg/kg, read-out: exposure (AUCINF)) was 63200 ± 15100 ng·h/mL, the half-life ([2]; male, rhesus monkey, plasma, iv, 1 mg/kg, IV, healthy, 1 mg/kg, read-out: half-life (converted)) was 16.4 ± 7.29 h and the Vd ([2]; male, rhesus monkey, plasma, iv, 1 mg/kg, IV, healthy, 1 mg/kg, read-out: volume of distribution (Vd)) was 0.428 ± 0.29 L/kg. It also gave a half-life ([2]; male, rhesus monkey, plasma, iv, 1 mg/kg, IV, healthy, read-out: half-life, range of individual subjects) of 9.37 to 28.8 h, a Cmax ([2]; male, rhesus monkey, plasma, iv, 1 mg/kg, intravenous bolus, healthy) of 18600 ± 1760 ng/mL and an AUC [2, 7] of 57300 ± 24200 ng·h/mL. For the same molecule, the Cmax [2, 7] was 3110 ± 887 ng/mL, the Tmax [2, 7] was 4 ± 2 h and the AUC(0-inf) ([2]; male, rhesus monkey, plasma, sc, 1 mg/kg, SC 1 mg/kg about 24 h after 11.5 Gy, Average of 6 animals, read-out: AUCINF) was 57300 ± 24200 ng·h/mL. It also gave a half-life ([2]; male, rhesus monkey, plasma, sc, 1 mg/kg, SC 1 mg/kg about 24 h after 11.5 Gy, Average of 6 animals, read-out: T1/2 (converted)) of 8.76 ± 0.621 h, a half-life ([2]; male, rhesus monkey, plasma, sc, 1 mg/kg, SC 1 mg/kg about 24 h after 11.5 Gy, individual animals (ID in c1), read-out: T1/2 (converted)) of 9.21 h and an AUC [2, 8] of 63700 ± 21400 ng·h/mL. For the same molecule, the Cmax [2, 8] was 3130 ± 637 ng/mL, the Tmax [2, 8] was 4 ± 2 h and the AUC(0-inf) ([2]; male, rhesus monkey, plasma, sc, 1 mg/kg, SC 1 mg/kg, healthy, Average of 6 animals, read-out: AUCINF) was 63700 ± 21400 ng·h/mL. For the same molecule, the half-life ([2]; male, rhesus monkey, plasma, sc, 1 mg/kg, SC 1 mg/kg, healthy, Average of 6 animals, read-out: T1/2 (converted)) was 10.5 ± 0.6 h, the Cmax ([2]; male, rhesus monkey, plasma, sc, 1 mg/kg, SC 1 mg/kg, healthy, individual animals (ID in c1)) was 2390 ng/mL and the half-life ([2]; male, rhesus monkey, plasma, sc, 1 mg/kg, SC 1 mg/kg, healthy, individual animals (ID in c1), read-out: T1/2 (converted)) was 10.6 h. It also gave a Cmax ([2]; male, rhesus monkey, plasma, sc, 1 mg/kg, SC post IR) of 3110 ± 887 ng/mL, a Tmax ([2]; male, rhesus monkey, plasma, sc, 1 mg/kg, SC post IR (~24 hours after 11.5 Gy Partial Body Irradiation), 1 mg/kg) of 4 ± 2 h and an AUC(0-inf) ([2]; male, rhesus monkey, plasma, sc, 1 mg/kg, SC post IR, 1 mg/kg, read-out: exposure (AUCINF)) of 57300 ± 24200 ng·h/mL. It also gave a half-life ([2]; male, rhesus monkey, plasma, sc, 1 mg/kg, SC post IR, 1 mg/kg, read-out: half-life (converted)) of 8.76 ± 0.621 h, a half-life ([2]; male, rhesus monkey, plasma, sc, 1 mg/kg, SC, healthy, read-out: T½, range of individual subjects) of 9.67 to 10.7 h and an AUC(0-inf) ([2]; male, rhesus monkey, plasma, sc, 1 mg/kg, SC, healthy, single dose 1 mg/kg, read-out: exposure (AUCINF)) of 63700 ± 21400 ng·h/mL. The half-life ([2]; male, rhesus monkey, plasma, sc, 1 mg/kg, SC, healthy, single dose 1 mg/kg, read-out: half-life (converted)) was 10.5 ± 0.6 h, the half-life ([2]; male, rhesus monkey, plasma, sc, 1 mg/kg, SC, irradiated animals, read-out: half-life, range of individual subjects) was 7.88 to 9.66 h and the Cmax ([2]; male, rhesus monkey, plasma, sc, 1 mg/kg, healthy, single dose 1 mg/kg) was 3130 ± 637 ng/mL. It also gave a Tmax ([2]; male, rhesus monkey, plasma, sc, 1 mg/kg, healthy, single dose 1 mg/kg, mean ± SD) of 4 ± 2 h.
